The record followed here is ChEMBL document CHEMBL1157216, “A common protein fold topology shared by flavonoid biosynthetic enzymes and therapeutic targets” (J Nat Prod, 2006).

Converted amounts (≈) assume the structure as drawn.

Assay [1] is described as follows: Inhibition of PKC.
Assay [2] can be described thus: Inhibition of thymocyte protein tyrosine kinase.
Assay [3] can be described thus: Inhibition of FGFR.
Assay [4] is described as follows: Inhibition of PI3K.
Assay [5] addresses Epidermal growth factor receptor (Homo sapiens, UniProt P00533). Put plainly: Inhibition of EGFR.
In assay [6] the target is Proto-oncogene tyrosine-protein kinase Src (Homo sapiens, UniProt P12931). Put plainly: Inhibition of c-Src.
Assay [7] addresses Cyclin-dependent kinase 6 (Homo sapiens, UniProt Q00534). Put plainly: Inhibition of CDK6.
A short description of assay [8]: Inhibition of CK2.
Assay [9] addresses Myosin light chain kinase, smooth muscle (Homo sapiens, UniProt Q15746). Kind of assay: Inhibition of MLCK.
A short description of assay [10]: Inhibition of CK1.
Assay [11] in a line: Inhibition of PKA.
Assay [12] in a line: Inhibition of CaM kinase.
Assay [13] is described as follows: Inhibition of Rous sarcoma virus SRC.
Assay [14] in a line: Inhibition of PKD.

Sequence of Epidermal growth factor receptor (P00533 whole entry): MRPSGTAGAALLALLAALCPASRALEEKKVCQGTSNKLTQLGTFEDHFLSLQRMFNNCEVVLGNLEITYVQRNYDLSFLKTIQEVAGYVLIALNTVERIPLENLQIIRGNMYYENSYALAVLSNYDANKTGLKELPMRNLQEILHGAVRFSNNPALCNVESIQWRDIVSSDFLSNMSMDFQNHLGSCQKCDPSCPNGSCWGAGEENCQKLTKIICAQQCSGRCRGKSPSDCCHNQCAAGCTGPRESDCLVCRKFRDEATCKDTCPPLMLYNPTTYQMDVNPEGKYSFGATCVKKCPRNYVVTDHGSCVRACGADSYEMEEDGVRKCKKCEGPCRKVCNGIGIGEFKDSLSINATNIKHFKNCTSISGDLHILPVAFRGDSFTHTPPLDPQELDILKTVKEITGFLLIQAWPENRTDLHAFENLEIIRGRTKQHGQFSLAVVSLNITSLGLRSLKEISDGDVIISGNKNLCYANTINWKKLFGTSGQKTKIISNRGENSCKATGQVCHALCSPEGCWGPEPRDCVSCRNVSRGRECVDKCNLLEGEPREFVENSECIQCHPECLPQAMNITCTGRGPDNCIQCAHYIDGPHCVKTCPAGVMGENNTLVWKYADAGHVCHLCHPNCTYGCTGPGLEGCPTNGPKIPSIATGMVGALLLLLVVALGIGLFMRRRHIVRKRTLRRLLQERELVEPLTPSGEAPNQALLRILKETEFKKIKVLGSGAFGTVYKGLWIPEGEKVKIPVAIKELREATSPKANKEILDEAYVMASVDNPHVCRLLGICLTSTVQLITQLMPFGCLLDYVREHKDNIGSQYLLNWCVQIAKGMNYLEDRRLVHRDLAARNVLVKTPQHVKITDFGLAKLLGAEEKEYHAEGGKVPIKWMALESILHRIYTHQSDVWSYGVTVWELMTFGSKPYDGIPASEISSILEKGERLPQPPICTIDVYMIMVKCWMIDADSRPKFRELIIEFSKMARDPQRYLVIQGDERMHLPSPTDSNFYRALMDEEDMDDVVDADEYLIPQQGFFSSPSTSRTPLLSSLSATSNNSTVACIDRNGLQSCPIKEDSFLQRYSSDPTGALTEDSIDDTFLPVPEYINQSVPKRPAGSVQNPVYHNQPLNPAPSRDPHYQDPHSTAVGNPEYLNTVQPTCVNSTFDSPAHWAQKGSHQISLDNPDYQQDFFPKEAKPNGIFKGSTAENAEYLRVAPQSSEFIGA
Sequence of Myosin light chain kinase, smooth muscle (Q15746 whole entry): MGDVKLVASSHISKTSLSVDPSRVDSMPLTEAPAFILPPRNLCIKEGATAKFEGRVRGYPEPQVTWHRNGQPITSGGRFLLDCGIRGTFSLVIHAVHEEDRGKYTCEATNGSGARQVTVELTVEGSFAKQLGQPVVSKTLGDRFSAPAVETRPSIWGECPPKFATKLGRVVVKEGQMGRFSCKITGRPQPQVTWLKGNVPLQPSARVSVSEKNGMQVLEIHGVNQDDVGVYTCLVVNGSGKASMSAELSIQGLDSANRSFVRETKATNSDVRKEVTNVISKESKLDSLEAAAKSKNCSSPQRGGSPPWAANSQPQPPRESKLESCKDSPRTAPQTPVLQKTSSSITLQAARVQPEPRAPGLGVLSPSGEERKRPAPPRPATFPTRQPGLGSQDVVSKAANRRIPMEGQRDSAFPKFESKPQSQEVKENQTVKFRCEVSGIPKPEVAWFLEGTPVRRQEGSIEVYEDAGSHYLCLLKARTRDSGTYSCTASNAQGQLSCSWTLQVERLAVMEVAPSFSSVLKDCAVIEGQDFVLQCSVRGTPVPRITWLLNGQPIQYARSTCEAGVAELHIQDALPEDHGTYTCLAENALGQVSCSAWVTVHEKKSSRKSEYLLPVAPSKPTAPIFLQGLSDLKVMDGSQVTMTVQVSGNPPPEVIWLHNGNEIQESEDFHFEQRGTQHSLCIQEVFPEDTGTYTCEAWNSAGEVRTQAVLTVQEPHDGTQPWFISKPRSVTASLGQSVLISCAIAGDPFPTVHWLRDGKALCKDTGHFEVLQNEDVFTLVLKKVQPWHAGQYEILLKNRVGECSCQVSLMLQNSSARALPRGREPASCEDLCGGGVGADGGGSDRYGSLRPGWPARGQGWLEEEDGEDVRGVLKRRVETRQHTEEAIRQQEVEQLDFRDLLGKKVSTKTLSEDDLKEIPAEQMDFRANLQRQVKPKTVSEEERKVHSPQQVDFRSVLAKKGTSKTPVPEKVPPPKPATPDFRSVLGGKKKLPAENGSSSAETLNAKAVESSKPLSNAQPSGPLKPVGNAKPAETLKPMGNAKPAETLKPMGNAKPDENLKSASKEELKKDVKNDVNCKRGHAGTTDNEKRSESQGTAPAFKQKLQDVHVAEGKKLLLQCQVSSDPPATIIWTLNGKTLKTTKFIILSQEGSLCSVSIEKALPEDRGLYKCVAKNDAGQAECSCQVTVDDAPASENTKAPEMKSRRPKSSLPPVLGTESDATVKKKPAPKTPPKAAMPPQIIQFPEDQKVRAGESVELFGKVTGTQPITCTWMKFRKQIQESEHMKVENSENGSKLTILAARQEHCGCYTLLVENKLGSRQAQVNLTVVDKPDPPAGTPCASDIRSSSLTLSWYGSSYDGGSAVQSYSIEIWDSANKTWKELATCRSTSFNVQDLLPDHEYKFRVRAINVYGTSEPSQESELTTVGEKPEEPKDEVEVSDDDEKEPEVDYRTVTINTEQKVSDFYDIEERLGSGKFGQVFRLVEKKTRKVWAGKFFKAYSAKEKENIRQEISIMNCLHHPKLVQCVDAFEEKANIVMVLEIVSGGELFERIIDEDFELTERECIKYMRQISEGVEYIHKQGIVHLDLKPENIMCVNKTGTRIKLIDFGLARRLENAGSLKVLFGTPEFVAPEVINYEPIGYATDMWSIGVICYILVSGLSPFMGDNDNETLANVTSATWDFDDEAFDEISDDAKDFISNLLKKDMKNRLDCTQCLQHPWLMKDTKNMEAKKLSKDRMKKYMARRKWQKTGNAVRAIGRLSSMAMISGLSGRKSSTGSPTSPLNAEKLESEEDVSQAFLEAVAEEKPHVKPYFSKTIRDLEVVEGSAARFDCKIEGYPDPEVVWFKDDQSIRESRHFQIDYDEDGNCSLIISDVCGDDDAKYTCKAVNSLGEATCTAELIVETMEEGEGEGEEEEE
Sequence of Cyclin-dependent kinase 6 (Q00534 whole entry): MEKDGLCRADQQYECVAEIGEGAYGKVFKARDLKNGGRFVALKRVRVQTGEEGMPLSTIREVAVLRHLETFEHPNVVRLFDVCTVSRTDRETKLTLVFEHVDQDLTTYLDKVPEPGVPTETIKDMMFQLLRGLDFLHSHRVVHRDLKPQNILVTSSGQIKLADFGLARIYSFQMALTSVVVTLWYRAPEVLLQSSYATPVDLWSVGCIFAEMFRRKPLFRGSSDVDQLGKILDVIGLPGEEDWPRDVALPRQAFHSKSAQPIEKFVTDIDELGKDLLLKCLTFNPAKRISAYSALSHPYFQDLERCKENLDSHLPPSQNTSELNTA
Sequence of Proto-oncogene tyrosine-protein kinase Src (P12931 2-536 limits assumed): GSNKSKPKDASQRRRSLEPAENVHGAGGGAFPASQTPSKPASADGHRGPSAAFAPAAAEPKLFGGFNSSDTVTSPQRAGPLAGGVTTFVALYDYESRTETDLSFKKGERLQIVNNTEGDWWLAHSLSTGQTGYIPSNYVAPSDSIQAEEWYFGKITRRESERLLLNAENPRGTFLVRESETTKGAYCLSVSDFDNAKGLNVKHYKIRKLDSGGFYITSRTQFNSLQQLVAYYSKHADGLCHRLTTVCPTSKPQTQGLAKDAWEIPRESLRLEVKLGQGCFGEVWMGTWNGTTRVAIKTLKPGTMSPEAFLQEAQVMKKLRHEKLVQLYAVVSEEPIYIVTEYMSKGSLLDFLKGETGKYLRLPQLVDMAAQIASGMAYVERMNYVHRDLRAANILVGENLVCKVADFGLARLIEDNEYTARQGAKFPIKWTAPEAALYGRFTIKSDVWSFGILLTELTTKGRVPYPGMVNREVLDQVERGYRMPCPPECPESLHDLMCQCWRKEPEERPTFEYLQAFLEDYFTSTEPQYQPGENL

The IC50 is the concentration that inhibits the measured activity by half. Low values mean inhibition by little substance, high ones a need for much substance. On to `O=c1cc(-c2ccc(O)cc2)oc2cc(O)cc(O)c12` [APIGENIN], for which the IC50 in assay [1] came to 10 µM; in assay [3], 20 µM; in assay [4], 12 µM. For the same compound, the ID50 in assay [2] came to 90 µg/mL (≈ 333 µM).

As to `O=C(/C=C/c1ccc(O)c(O)c1)c1ccc(O)cc1O` [BUTEIN], the IC50 in assay [5] was determined as 8 µM; in [6], 65 µM.

The compound `O=C1c2ccccc2-[n+]2ccc3c([nH]c4ccccc43)c21` [FASCAPLYSIN CHLORIDE] came in with an IC50 in assay [7] of 3.4 µM.

`O=c1c(O)c(-c2ccc(O)c(O)c2)oc2cc(O)ccc12` [FISETIN]: the IC50 in [2] is 35 µM; in assay [8], 0.35 µM; in assay [4], 10 µM.

As to `O=c1cc(-c2ccc(O)c(O)c2)oc2cc(O)cc(O)c12` [LUTEOLIN], the IC50 in assay [4] came out at 8 µM. In other words, the single-digit micromolar range.

In general, Ki refers to a dissociation constant, usually derived from enzyme kinetics or from competition with a known ligand. A low value points to tighter binding. By Kd is commonly meant a measure of binding affinity in units of concentration. A higher Kd goes with a looser complex. As to `O=c1c(O)c(-c2cc(O)c(O)c(O)c2)oc2cc(O)cc(O)c12` [MYRICETIN], the Ki in assay [1] was 12.1 µM; in [8], 0.6 µM; in [9] it was 1.7 µM; in assay [10] it was 9 µM; in [11], 27.5 µM. Moreover, the IC50 in assay [8] turned out to be 0.92 µM; in assay [4], 1.8 µM. For the same compound, the Kd in assay [4] was 0.17 µM.

For the compound `Oc1cc(O)cc(/C=C/c2ccc(O)c(O)c2)c1` [PICEATANNOL], the half-inhibitory concentration (IC50) came out at 8 µM in assay [1], 12 µM in assay [9], 3 µM in assay [11] and 19 µM in assay [12]. Further, in [2], the Ki worked out at 15 µM.

On to `O=c1c(O)c(-c2ccc(O)c(O)c2)oc2cc(O)cc(O)c12` [QUERCETIN], for which the ID50 in assay [2] is 11 µg/mL (≈ 36.4 µM). In [4], this compound returned an IC50 of 3.8 µM and a Kd of 0.28 µM. The compound also yielded a Ki in assay [13] of 6 µM.

As for `Oc1ccc(/C=C/c2cc(O)cc(O)c2)cc1` [RESVERATROL], the figures for the IC50 in [1], in assay [8] and in [14] were 90 µM, 10 µM and 200 µM, respectively. For the same compound, the Ki amounted to 55 µM in assay [1] and 1.2 µM in [8].

`COc1c(O)cc2occ(-c3ccc(O)cc3)c(=O)c2c1O` [TECTORIGENIN] showed an IC50 in [5] of 3.3 µM.
